In patent US11655235B2, “Pyrrolidine and piperidine compounds” (YUHAN CORPORATION, priority 2019, dated 2023):
Where two headings read alike, the source gives them in different places.

Tests used:
Type in all cases: biochemical
[1] = biological target: DPP4 (Homo sapiens, UniProt P27487); experiment: DPP4 inhibition, fluorogenic substrate H-Gly-Pro-AMC; design: purchased R&D Systems
[2] = biological target: T1, Recombinant human FAP (Homo sapiens, UniProt Q12884); experiment: FAP inhibition, fluorogenic substrate Z-Gly-Pro-AMC
T1 construct: purchased R&D systems
T1 sequence (Q12884 1-760): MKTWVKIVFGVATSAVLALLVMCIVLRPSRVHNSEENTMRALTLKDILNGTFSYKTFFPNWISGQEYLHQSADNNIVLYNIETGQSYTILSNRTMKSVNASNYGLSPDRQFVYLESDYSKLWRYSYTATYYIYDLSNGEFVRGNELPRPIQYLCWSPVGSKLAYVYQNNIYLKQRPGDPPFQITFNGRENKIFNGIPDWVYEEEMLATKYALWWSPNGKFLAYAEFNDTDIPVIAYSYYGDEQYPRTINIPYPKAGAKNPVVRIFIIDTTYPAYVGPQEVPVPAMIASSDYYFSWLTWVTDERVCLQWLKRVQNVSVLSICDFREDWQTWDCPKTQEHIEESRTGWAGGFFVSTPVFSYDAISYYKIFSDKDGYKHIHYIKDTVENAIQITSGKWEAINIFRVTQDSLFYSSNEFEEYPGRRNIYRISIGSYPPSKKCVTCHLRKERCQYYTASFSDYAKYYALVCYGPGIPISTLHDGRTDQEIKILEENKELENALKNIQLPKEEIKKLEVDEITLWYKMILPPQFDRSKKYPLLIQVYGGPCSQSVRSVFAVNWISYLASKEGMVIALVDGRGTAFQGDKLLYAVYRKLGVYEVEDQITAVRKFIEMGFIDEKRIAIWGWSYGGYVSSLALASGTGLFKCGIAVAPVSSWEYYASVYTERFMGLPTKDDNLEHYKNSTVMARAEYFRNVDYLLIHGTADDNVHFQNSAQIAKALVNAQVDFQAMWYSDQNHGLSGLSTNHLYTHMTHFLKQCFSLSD
Procedure, shortened: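 Eight-point compound dilutions (≤0.1% DMSO) were incubated at 25° C with 10 ng recombinant human FAP in Tris pH 7.5/1 M NaCl/BSA buffer and Z-Gly-Pro-AMC. Inhibition was taken as % drop in fluorescence rate (380/460 nm) against uninhibited control; IC50 came from a four-parameter logistic fit.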

[3] = biological target: T2, recombinant human DPP7 (Homo sapiens, UniProt Q9UHL4); experiment: DPP7 inhibition, fluorogenic substrate Lys-Pro-AMC
T2 construct: purchased R&D Systems
Protocol: (§1) The compounds according to the present technology were evaluated in terms of the inhibitory effect on the activity of dipeptidyl peptidases including FAP by using a substrate producing fluorescent substances upon enzymatic decomposition. The test was conducted at 25° C. to get a final reaction volume of 100 μL in a 96 black well plate. […] Briefly, the test compounds were dissolved in dimethyl sulfoxide (DMSO) at a concentration of 20 mM and then subjected to serial dilution, thereby creating an 8 point curve. As for the control group, a 6 point curve created by serial dilution of Talabostat in the same buffer solution was used. Fluorescence intensity was measured using a microplate reader (Flexstation3, Molecular Devices) under the wavelength condition exciting at 380 nm and reading the emission at 460 nm. The inhibitory effect of the test compounds was measured as a decrease (%) in the signal rate as compared to the control group without any inhibitor. Data was fixed to a logistic model with four variables and IC50 value was calculated using GraphPad Prism program. As for recombinant human DPP4 (R&D Systems), 25 mM tris (pH 8.0) buffer as a buffer solution and H-Gly-Pro-AMC (Bachem) as a substrate were used. As for recombinant human DPP7 (R&D Systems), 25 mM MES (pH 6.0) buffer as a buffer solution and Lys-Pro-AMC (Bachem) as a substrate were used. As for recombinant human DPP8 (PBS Bioscience), as a buffer solution, a 10 mM tris (pH 7.4) buffer comprising 10 mM of magnesium chloride and 0.05% of Tween 20, and Z-Ala-Pro-AMC (BPS Bioscience) as a substrate were used. As for recombinant human DPP9 (R&D Systems), a 25 mM tris (pH 8.0) buffer as a buffer solution and H-Gly-Pro-AMC (Bachem) as a substrate were used. As for recombinant human PREP (R&D System), as a buffer solution, a 25 mM tris (pH 7.5) buffer comprising 250 mM sodium chloride and 2.5 mM DTT (Dithiolthreitol), and Z-Gly-Pro-AMC (Bachem) as a substrate were used. The evaluation was made by using 10 ng of DPP4, PDD7, and PREP, 20 ng of DPP8, and 50 ng of DPP9 based on the final reaction. In the evaluation of DPP4, the test compounds were subjected to serial dilution in a buffer under the condition containing up to 0.1% of DMSO. In the evaluation of DPP7, DPP8, DPP9, and PREP, the test compounds were subjected to serial dilution in each buffer under the condition containing up to 0.5% of DMSO.

[4] = biological target: T3, recombinant human DPP9 (Homo sapiens, UniProt Q86TI2); experiment: DPP9 inhibition, fluorogenic substrate H-Gly-Pro-AMC; conditions: at 1 μM
T3 construct: purchased R&D Systems
Protocol: as §1

[5] = biological target: T1, Recombinant human FAP; experiment: FAP FRET assay, FGF21-sequence FRET peptide substrate; conditions: FRET peptide with human FGF21 sequence, 6 μM, 37° C.
Protocol: The compounds according to the present technology were evaluated in terms of the inhibitory effect on the activity of dipeptidyl peptidases including FAP by using a substrate producing fluorescent substances upon enzymatic decomposition. The test was conducted at 25° C. to get a final reaction volume of 100 μL in a 96 black well plate. […] Briefly, the test compounds were dissolved in dimethyl sulfoxide (DMSO) at a concentration of 20 mM and then subjected to serial dilution, thereby creating an 8 point curve. As for the control group, a 6 point curve created by serial dilution of Talabostat in the same buffer solution was used. Fluorescence intensity was measured using a microplate reader (Flexstation3, Molecular Devices) under the wavelength condition exciting at 380 nm and reading the emission at 460 nm. The inhibitory effect of the test compounds was measured as a decrease (%) in the signal rate as compared to the control group without any inhibitor. Data was fixed to a logistic model with four variables and IC50 value was calculated using GraphPad Prism program. For the FAP FRET assay, recombinant human FAP (R&D systems) was diluted with 50 mM HEPES (pH 7.2) buffer comprising 150 mM of sodium chloride, 0.1 mg/ml of bovine serum albumin (BSA) and 1 mM EDTA to be 10 ng per final reaction. The test compounds were subjected to serial dilution in a buffer under the condition containing up to 0.1% of DMSO. FRET peptides containing human FGF21 sequence ([…]) conjugated with HyLite Fluor 488 and dark quencher QXL 520 (Anaspec) was used as a substrate. By dissolving in DMSO and then diluting in the same buffer, the substrate was added to be 6 μM per final reaction. All reactions of FRET assay was conducted at 37° C.

[6] = 25° C., H-Gly-Pro-AMC substrate
[7] = 25° C., Z-Gly-Pro-AMC substrate
[8] = recombinant human FAP, substrate Z-Gly-Pro-AMC

Sequence of DPP4 (P27487 whole entry): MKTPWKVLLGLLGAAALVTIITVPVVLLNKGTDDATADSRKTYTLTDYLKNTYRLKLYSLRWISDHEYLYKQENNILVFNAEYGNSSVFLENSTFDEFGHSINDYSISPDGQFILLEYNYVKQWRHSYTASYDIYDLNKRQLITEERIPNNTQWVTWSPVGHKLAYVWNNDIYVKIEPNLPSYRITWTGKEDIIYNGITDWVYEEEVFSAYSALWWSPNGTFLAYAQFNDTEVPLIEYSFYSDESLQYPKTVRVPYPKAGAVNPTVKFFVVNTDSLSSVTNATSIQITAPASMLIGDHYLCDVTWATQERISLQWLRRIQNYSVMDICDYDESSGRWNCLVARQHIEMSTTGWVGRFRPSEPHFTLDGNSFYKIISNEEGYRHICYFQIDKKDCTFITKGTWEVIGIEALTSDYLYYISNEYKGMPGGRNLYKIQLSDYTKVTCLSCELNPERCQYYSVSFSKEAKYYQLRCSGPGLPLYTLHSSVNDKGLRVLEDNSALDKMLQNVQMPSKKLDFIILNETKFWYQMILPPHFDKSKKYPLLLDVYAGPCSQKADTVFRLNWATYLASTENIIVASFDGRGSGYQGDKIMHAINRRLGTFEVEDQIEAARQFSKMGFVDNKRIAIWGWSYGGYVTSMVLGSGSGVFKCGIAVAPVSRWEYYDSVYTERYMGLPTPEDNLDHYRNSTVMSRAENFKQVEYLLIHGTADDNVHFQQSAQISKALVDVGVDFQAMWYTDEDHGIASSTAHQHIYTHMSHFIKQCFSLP
T3 sequence (Q86TI2 whole entry): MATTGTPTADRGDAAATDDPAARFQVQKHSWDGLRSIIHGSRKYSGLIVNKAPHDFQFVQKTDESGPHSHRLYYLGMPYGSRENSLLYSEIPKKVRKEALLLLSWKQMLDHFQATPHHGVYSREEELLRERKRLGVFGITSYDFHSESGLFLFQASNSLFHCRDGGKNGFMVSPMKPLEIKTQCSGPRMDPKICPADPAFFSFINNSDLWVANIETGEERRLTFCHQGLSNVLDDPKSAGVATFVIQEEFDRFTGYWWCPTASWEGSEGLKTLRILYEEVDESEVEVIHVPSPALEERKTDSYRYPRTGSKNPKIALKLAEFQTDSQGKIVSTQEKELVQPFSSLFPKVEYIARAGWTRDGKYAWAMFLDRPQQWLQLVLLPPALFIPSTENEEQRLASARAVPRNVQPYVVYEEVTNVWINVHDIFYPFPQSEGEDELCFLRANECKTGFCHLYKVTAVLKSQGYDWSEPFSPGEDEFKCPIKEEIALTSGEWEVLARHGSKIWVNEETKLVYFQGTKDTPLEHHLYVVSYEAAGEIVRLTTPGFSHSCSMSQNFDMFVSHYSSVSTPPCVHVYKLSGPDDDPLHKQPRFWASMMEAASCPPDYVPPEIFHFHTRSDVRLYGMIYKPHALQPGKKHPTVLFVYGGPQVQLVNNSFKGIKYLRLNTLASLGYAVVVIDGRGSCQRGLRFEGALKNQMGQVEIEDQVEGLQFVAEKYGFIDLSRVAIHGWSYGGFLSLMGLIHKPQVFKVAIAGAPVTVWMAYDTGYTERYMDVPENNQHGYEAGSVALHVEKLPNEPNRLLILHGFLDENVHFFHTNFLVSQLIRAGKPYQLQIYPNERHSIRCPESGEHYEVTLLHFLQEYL

## N#C[C@@H]1CCCN1C(=O)CN1CC[C@H](Nc2ccnc3ccccc23)C1 [Example 5, (S)-1-(2-((S)-3-(quinolin-4-ylamino)pyrrolidin-1-yl)acetyl)pyrrolidine-2-carbonitrile]
[1]; [6]
  IC50: > 1000 nM
[2]; [7]
  IC50: 2.6 nM
[3]
  IC50: 294 nM

## N#C[C@@H]1CCCN1C(=O)CN1CC[C@H](Nc2cncc3ccoc23)C1 [Example 23, (S)-1-(2-((S)-3-(furo[3,2-c]pyridin-7-ylamino)pyrrolidin-1-yl)acetyl)pyrrolidine-2-carbonitrile]
[1]; [6]
  IC50: > 1000 nM
[2]; [7]
  IC50: 3.08 nM
[3]
  IC50: 951 nM

## COc1ccc2occ(C(=O)N[C@H]3CCN(CC(=O)N4CCC[C@H]4C#N)C3)c2c1 [Example 46, N—((S)-1-(2-((S)-2-cyanopyrrolidin-1-yl)-2-oxoethyl)pyrrolidin-3-yl)-5-methoxybenzofuran-3-carboxamide]
[1]; read-out: hDPP4 inhibition % at 1 μM
  inhibition at 1 µM: 1.4%
[2]; [7]
  IC50: 7.7 nM
[3]
  IC50: 2200 nM

## N#C[C@@H]1CCCN1C(=O)CN1CC[C@H](Oc2ccnc3ccccc23)C1 [Example 61, (S)-1-(2-((S)-3-(quinolin-4-yloxy)pyrrolidin-1-yl)acetyl)pyrrolidine-2-carbonitrile]
[1]; [6]
  IC50: > 1000 nM
[2]; [7]
  IC50: 21.5 nM
[3]
  IC50: 1150 nM

## N#C[C@@H]1CCCN1C(=O)CN1CC[C@H](Oc2cccc3ncccc23)C1 [Example 66, (S)-1-(2-((S)-3-(quinolin-5-yloxy)pyrrolidin-1-yl)acetyl)pyrrolidine-2-carbonitrile]
[1]; [6]
  IC50: > 1000 nM
[2]; [7]
  IC50: 5.48 nM
[3]
  IC50: 6390 nM

## N#C[C@@H]1CCCN1C(=O)CN1CC[C@H](Oc2ccnc3c(C(F)(F)F)cccc23)C1 [Example 95, (S)-1-(2-((S)-3-((8-(trifluoromethyl)quinolin-4-yl)oxy)pyrrolidin-1-yl)acetyl)pyrrolidine-2-carbonitrile]
[1]; [6]
  IC50: > 1000 nM
[2]; [7]
  IC50: 3.3 nM
[3]
  IC50: 4740 nM
[4]
  DPP9 inhibition % at 1 μM: No inhibition**

## N#C[C@@H]1CCCN1C(=O)CN1CCC(Nc2cccc3ncccc23)CC1 [Example 110, (S)-1-(2-(4-(quinolin-5-ylamino)piperidin-1-yl)acetyl)pyrrolidine-2-carbonitrile]
[1]; [6]
  IC50: > 1000 nM
[2]; [7]
  IC50: 2.2 nM
[3]
  IC50: 500 nM

## COc1ccc2nccc(OC3CCN(CC(=O)N4C[C@@H](F)C[C@H]4C#N)CC3)c2c1 [Example 128, (2S,4S)-4-fluoro-1-(2-(4-((6-methoxyquinolin-4-yl)oxy)piperidin-1-yl)acetyl)pyrrolidine-2-carbonitrile]
[1]; [6]
  IC50: > 10000 nM
[2]; [7]
  IC50: 0.78 nM
[3]
  IC50: 5900 nM

## COc1ccc2cc(N(C)[C@H]3CCN(CC(=O)N4CCC[C@H]4C#N)C3)cnc2c1 [Example 153, (S)-1-(2-((S)-3-((7-methoxyquinolin-3-yl)(methyl)amino)pyrrolidin-1-yl)acetyl)pyrrolidine-2-carbonitrile]
[2]; [7]
  IC50: 3.4 nM
[3]
  IC50: 3120 nM

## N#C[C@@H]1CCCN1C(=O)CN1CC[C@@H](Nc2ccc3nc(Cl)ccc3c2)C1 [Example 206, (2S)-1-[2-[(3R)-3-[(2-chloro-6-quinolyl)amino]pyrrolidin-1-yl]acetyl]pyrrolidine-2-carbonitrile]
[5]
  IC50: 32.8 nM

## N#C[C@@H]1C[C@H](F)CN1C(=O)CN1CC[C@@H](Nc2ccc3nc(Cl)ccc3c2)C1 [Example 207, (2S,4S)-4-fluoro-1-[2-[(3R)-3-[(2-chloro-6-quinolyl)amino]pyrrolidin-1-yl]acetyl]pyrrolidine-2-carbonitrile]
[5]
  IC50: 17.9 nM

## N#C[C@@H]1C[C@H](F)CN1C(=O)CN1CC[C@H](Nc2ccc3cccnc3c2)C1 [Example 251, (2S,4S)-4-fluoro-1-[2-[(3S)-3-(7-quinolylamino)pyrrolidin-1-yl]acetyl]pyrrolidine-2-carbonitrile]
[1]; recombinant human DPP4
  IC50: 2310 nM
[2]; [8]
  IC50: 3.1 nM
[3]; recombinant human DPP7
  IC50: 199 nM

## CN(c1cc2ccccc2cn1)C1CCN(CC(=O)N2CCC[C@H]2C#N)CC1 [Example 321, (2S)-1-[2-[4-[3-isoquinolyl(methyl)amino]-1-piperidyl]acetyl]pyrrolidine-2-carbonitrile]
[1]; recombinant human DPP4
  IC50: > 10000 nM
[2]; [8]
  IC50: 8.8 nM
[3]; recombinant human DPP7
  IC50: 10500 nM

## N#C[C@@H]1C[C@H](F)CN1C(=O)CN1CCC(Nc2cccc3nc[nH]c23)CC1 [Example 384, (2S,4S)-1-[2-[4-(3H-benzimidazol-4-ylamino)-1-piperidyl]acetyl]-4-fluoro-pyrrolidine-2-carbonitrile]
[5]
  IC50: 74.9 nM

## N#C[C@@H]1C[C@H](F)CN1C(=O)CN1CCC(Nc2cc(Cl)nc(N3CCOCC3)c2)CC1 [Example 385, (2S,4S)-1-[2-[4-[(2-chloro-6-morpholino-4-pyridyl)amino]-1-piperidyl]acetyl]-4-fluoro-pyrrolidine-2-carbonitrile]
[5]
  IC50: 77.4 nM

## N#C[C@@H]1C[C@H](F)CN1C(=O)CN1CCC(Nc2cccc3ncc(C(F)(F)F)cc23)CC1 [Example 386, (2S,4S)-4-fluoro-1-[2-[4-[[3-(trifluoromethyl)-5-quinolyl]amino]-1-piperidyl]acetyl]pyrrolidine-2-carbonitrile]
[5]
  IC50: 19.8 nM

## N#C[C@@H]1C[C@H](F)CN1C(=O)CN1CCC(Oc2ccc(Cl)c3ncccc23)CC1 [Example 418, (2S,4S)-1-[2-[4-[(8-chloro-5-quinolyl)oxy]-1-piperidyl]acetyl]-4-fluoro-pyrrolidine-2-carbonitrile]
[1]; recombinant human DPP4
  IC50: 4670 nM
[2]; [8]
  IC50: 3.7 nM
